The subject of test [1] is TNF-α. Briefly: In-vitro whole cell assay for TNF-α inhibition (LPS-stimulated PBMC, ELISA). The note with it: TNF-α by ELISA. The class given is cell-based. The method, then: Freshly obtained venous blood was anticoagulated with heparin, diluted with an equal volume of phosphate buffered saline (“PBS”) and placed in a sterile tube or other container. Aliquots (30 mL) of this mixture were transferred to centrifuge tubes, which were underlaid with Ficoll-Hypaque (15 mL). The prepared tubes were centrifuged at 400×g, without braking, for 30 min at room temperature. Approximately ½ to ⅔ of the platelet layer above the mononuclear cell band was removed with a pipette. The majority of the mononuclear cell layer was carefully removed using a pipette and these PBMC's were diluted with PBS and spun at 600×g for 15 min. The resulting PBMC's were washed with another portion of PBS and spun at 400×g for 10 min at room temperature. The recovered pellets were diluted in low endotoxin RPMI/1% FCS culture medium, and gave a cell concentration of 0.5-2.0×10^6 PMBC/ mL. A small volume of the suspension was removed for counting on a hemocytometer and the remaining preparation was centrifuged at 200×g for 15 min at room temperature. The recovered pelleted PMBC's were resuspended in RPMI/1% FCS to a concentration of 1.67×10^6/mL.
To run the assay, the PBMC suspension (180 μL) was transferred to duplicate wells of a 96-well flat-bottom microtiter plate and incubated for 1 h at 37° C. A solution of test compound (10 μL: prepared at 20× the desired final concentration) was added to each well and the plate was incubated for 1 h at 37° C. A solution (10 μL) of LPS in RPMI/1% FCS (200 ng/mL) was added and the wells were incubated overnight at 37° C. The supernate (100 μL) was removed from each well and diluted with RPMI/1% FCS (400 μL). The samples were analyzed for TNF-α using a commercial ELISA kit (Genzyme).
A general note: ELISA stands for enzyme-linked immunosorbent assay.

Test [2] deals with TNF-α. Briefly: In vivo rodent assay for inhibition of LPS-induced TNF-α production. Set-up: species or system Mice (BALB/cJ females). The note with it: 10 mg/kg oral; for inhibition in vivo at 10 mg/kg: Mus musculus, po. The procedure: Mice (BALB/cJ females, Jackson Laboratories) or rats (Lewis males, Charles River) were fasted for 30 min. The animals were dosed orally on a mg/kg basis at a range of times prior to being injected intraperitoneally with LPS at 1 mg/kg and returned to their cages for 1 h. Animals were anesthetized by CO2, exsanguinated by cardiac puncture and whole blood collected (0.1-0.7 mL). The blood was allowed to clot and serum was transferred to a centrifuge tube. This sample was centrifuged, and serum was collected, aliquoted and frozen at −80° C. Samples were tested by commercial ELISA's for TNF-α (Endogen for mouse TNF-α and Biosource for rat TNF-α).

Where [3] appears, read: 2 h, 2 h, read-out: Mouse 10 mg/kg % inhib 2 h.
The mark [4] stands for this setting: 0.5 h, 0.5 h, read-out: Mouse 10 mg/kg % inhib 0.5 h.

Like-named read-outs stand apart in the source and are kept apart here.

For `CCOC(=O)N1CCN(c2c(-c3ccncc3)c(-c3ccc(F)cc3)c(C(=O)OC)n2C)CC1` [Cpd 179], 0.03 µM corresponded to half-maximal inhibition in the test with TNF-α [1] (IC50). Also, the inhibition in vivo at 10 mg/kg in the test with TNF-α [2] (setting [3]) is 8%.
With `Cn1cc(-c2ccncc2)c(-c2ccc(F)cc2)c1-c1ncc(-c2ccccc2)o1` [Cpd 36, 4-[4-(4-Fluorophenyl)-1-methyl-5-(5-phenyl-2-oxazolyl)-1H-pyrrol-3-yl]pyridine], in the test with TNF-α [1], the midpoint of inhibition, the IC50, lay at 1.03 µM. The values for the inhibition in vivo at 10 mg/kg in the test on TNF-α [2] (setting [4]) and in the test on TNF-α [2] (setting [3]) were 81% and 35%, respectively.
As to `CC(O)c1c(-c2ccc(F)cc2)c(-c2ccncc2)cn1C` (stereo not drawn) [Cpd 40, 3-(4-Fluorophenyl)-[…], 1-dimethyl-4-(4-pyridinyl)-1H-pyrrole-2-methanol], in the test with TNF-α [1], the IC50 – broadly, the concentration that gives 50% inhibition – is 1.45 µM.
With `Cn1c(N2CCCC2)c(-c2ccncc2)c(-c2ccc(F)cc2)c1C(C)(C)O` [Cpd 111], in the test on TNF-α [1], the concentration for half-maximal inhibition (IC50) is 0.192 µM. Besides, the inhibition in vivo at 10 mg/kg in the test on TNF-α [2] (setting [4]) amounted to 37.7%.
The compound `COC(=O)c1c(-c2ccc(F)cc2)c(-c2ccncc2)c(NCCN2CCCC2)n1CCN1CCOCC1` [Cpd 156] displayed an IC50 in the test on TNF-α [1] of 0.969 µM. In the test with TNF-α [2] (setting [4]), the inhibition in vivo at 10 mg/kg turned out to be 23%.
Turning to `COC(=O)c1c(-c2ccc(F)cc2)c(-c2ccncc2)c(-c2ccncc2)n1C` [Cpd 137], the inhibition in vivo at 10 mg/kg with TNF-α [2] (setting [4]) was 51%.
In the test on TNF-α [1], `COC(=O)c1c(-c2ccncc2)c(-c2ccc(F)cc2)c(NCCc2ccccc2)n1C` [Cpd 152] yielded an IC50 of 1.02 µM. The inhibition in vivo at 10 mg/kg with TNF-α [2] (setting [4]) was determined as 58%.
For `COC(=O)c1c(-c2ccc(F)cc2)c(-c2ccncc2)cn1CCN(C)C` [Cpd 146], the inhibition in vivo at 10 mg/kg in the test on TNF-α [2] (setting [4]) is -32%.
As for `CC(=O)c1c(-c2ccc(F)cc2)c(-c2ccncc2)c(N2CCN(C)CC2)n1C` [Cpd 178], the 50% inhibitory concentration (IC50) in the test with TNF-α [1] came out at 0.37 µM. Further, the inhibition in vivo at 10 mg/kg in the test on TNF-α [2] (setting [3]) is 40%.
With `CCCc1c(-c2ccnc(SC)n2)c(-c2ccc(F)cc2)cn1CCCN(C)C` [Cpd 48], inhibition in the test on TNF-α [1] was half-maximal at 0.148 µM (IC50). In addition, in the test on TNF-α [2] (setting [4]), the inhibition in vivo at 10 mg/kg was -37%.
`CC(=O)c1c(-c2ccc(F)cc2)c(-c2ccncc2)cn1C` [Cpd 39, 1-[3-(4-Fluorophenyl)-1-methyl-4-(4-pyridinyl)-1H-pyrrol-2-yl]ethanone] had an IC50 with TNF-α [1] of 0.597 µM.
`COC(=O)c1c(-c2ccc(F)cc2)c(-c2ccncc2)c2n1CCC2C` (stereo not drawn) [Cpd 47, 6-(4-Fluorophenyl)-2,3-dihydro-1-methyl-7-(4-pyridinyl)-1H-pyrrolizine-5-carboxylic acid methyl ester] came in with an IC50 with TNF-α [1] of 0.208 µM. Moreover, the inhibition in vivo at 10 mg/kg in the test with TNF-α [2] (setting [4]) turned out to be 67%; with TNF-α [2] (setting [3]), 52%.
Take `CON(C)C(=O)c1c(-c2ccc(F)cc2)c(-c2ccncc2)cn1C` [Cpd 37, 3-(4-Fluorophenyl)-N-methoxy-N,1-dimethyl-4-(4-pyridinyl)-1H-pyrrole-2-carboxamide]: half-maximal inhibition in the test on TNF-α [1] (IC50) required 5.84 µM.
In the case of `COC(=O)C1CCn2c(I)c(-c3ccncc3)c(-c3ccc(F)cc3)c2C1=O` (stereo not drawn) [Cpd 136], the inhibition in vivo at 10 mg/kg in the test with TNF-α [2] (setting [4]) was 15%.
Consider `Cn1cc(-c2ccncc2)c(-c2ccc(F)cc2)c1C#N` [Cpd 169], for which the “Mouse 10 mg/kg % inhib 2 h” value in the test on TNF-α [2] (2 h, 10 mg/kg) is 49%.
Compound `COC(=O)c1c(-c2ccc(F)cc2)c(-c2ccncc2)c(Nc2ccc3c(c2)N(C(C)=O)CC3)n1C` [Cpd 166] showed a 50% inhibitory concentration (IC50) with TNF-α [1] of 0.65 µM.
As to `Cn1c(CO)c(-c2ccc(F)cc2)c(-c2ccncc2)c1N1CCN(C(=O)OC(C)(C)C)CC1` [Cpd 151], in the test with TNF-α [2] (setting [4]), the inhibition in vivo at 10 mg/kg came out at 83%.
In the test on TNF-α [1], `COC(=O)c1c(-c2ccc(F)cc2)c(-c2ccncc2)c(NCCc2ccncc2)n1C` [Cpd 154] had a half-inhibitory concentration (IC50) of 0.145 µM. This lies in the sub-micromolar range.
In turn, `COC(=O)c1c(-c2ccc(F)cc2)c(-c2ccncc2)c(N2CCN(CC3CCCCC3)CC2)n1C` [Cpd 130] gave an IC50 in the test on TNF-α [1] of 0.573 µM. This IC50 lies about 4-fold higher than the previous one.
In turn, `COC(=O)CCCn1c(NCCN2CCOCC2)c(-c2ccncc2)c(-c2ccc(F)cc2)c1C(=O)OC` [Cpd 23a] had an IC50 in the test with TNF-α [1] of 0.029 µM.
In turn, `COC(=O)c1c(-c2ccc(F)cc2)c(-c2ccncc2)c(Nc2cccc(NC(C)=O)c2)n1C` [Cpd 174] gave a half-maximal inhibitory concentration (IC50) with TNF-α [1] of 0.021 µM. The IC50 values of the last two compounds are within 1.5-fold of each other.
`Cn1c(C(O)c2ccccc2)c(-c2ccc(F)cc2)c(-c2ccncc2)c1N1CCNCC1` (stereo not drawn) [Cpd 117] yielded a concentration for half-maximal inhibition (IC50) in the test on TNF-α [1] of 0.66 µM.
`COC(=O)c1c(-c2ccc(F)cc2)c(-c2ccncc2)c(NCCNC(C)=O)n1C` [Cpd 135]: half-maximal inhibition in the test with TNF-α [1] (IC50) was put at 1.69 µM. This IC50 lies about 2.6-fold higher than the previous one.
On to `COC(=O)c1c(-c2ccc(F)cc2)c(-c2ccncc2)c(NCCCN2CCOCC2)n1C` [Cpd 149], for which the inhibition in vivo at 10 mg/kg with TNF-α [2] (setting [4]) came out at 64%.
On to `CC(=O)N1CCN(c2c(-c3ccncc3)c(-c3ccc(F)cc3)c(-c3nnco3)n2C)CC1` [Cpd 157], for which, in the test on TNF-α [2] (setting [4]), the inhibition in vivo at 10 mg/kg was determined as 19%.
In turn, `COC(=O)c1c(-c2ccc(F)cc2)c(-c2ccncc2)c(N(C)CCN2CCSCC2)n1C` [Cpd 162] yielded an IC50 in the test with TNF-α [1] of 0.183 µM.
As for `COC(=O)c1c(-c2ccc(F)cc2)c(-c2ccncc2)c(N2CCN(C(C)C)CC2)n1C` [Cpd 126], 1.98 µM corresponded to half-maximal inhibition in the test on TNF-α [1] (IC50).
For `Cn1c(C#N)c(-c2ccc(F)cc2)c(-c2ccncc2)c1NCCN1CCOCC1` [Cpd 171], in the test on TNF-α [1], half-maximal inhibition (IC50) was put at 0.351 µM.
With `N#Cc1[nH]cc(-c2ccncc2)c1-c1ccc(F)cc1` [Cpd 158], in the test with TNF-α [1], the IC50 came out at 0.047 µM.
In the case of `COC(=O)CCn1c(C#CCCO)c(-c2ccncc2)c(-c2ccc(F)cc2)c1C(=O)OC` [Cpd 150], the half-inhibitory concentration (IC50) with TNF-α [1] was 5.28 µM. This IC50 lies about 110-fold higher than the previous one.
The compound `COC(=O)c1c(-c2ccc(F)cc2)c(-c2ccncc2)c(NC2CCN(Cc3ccccc3)CC2)n1C` [Cpd 120] showed a concentration for half-maximal inhibition (IC50) with TNF-α [1] of 1.31 µM.
Regarding `CCCc1c(-c2ccnc(N[C@@H](C)c3ccccc3)n2)c(-c2ccc(F)cc2)cn1C(=O)OC(C)(C)C` [Cpd 49], the inhibition in vivo at 10 mg/kg with TNF-α [2] (setting [4]) is -79%.
Regarding `CCCN1CCN(c2c(-c3ccncc3)c(-c3ccc(F)cc3)c(C(=O)OC)n2C)CC1` [Cpd 127], inhibition in the test on TNF-α [1] was half-maximal at 0.901 µM (IC50).
`COC(=O)c1c(-c2ccc(F)cc2)c(-c2ccncc2)c(NC(C)=O)n1C` [Cpd 142] came in with an IC50 in the test on TNF-α [1] of 1.49 µM. Against the preceding compound, the IC50 is about 1.7-fold higher.
The same measure, in the same setting: under `CCCn1c(NCCN2CCOCC2)c(-c2ccncc2)c(-c2ccc(F)cc2)c1C(=O)OC` [Cpd 153] stands 0.589 µM.
On to `COC(=O)c1c(-c2ccc(F)cc2)c(-c2ccncc2)c(NCCNC(=O)OC(C)(C)C)n1C` [Cpd 132], for which the IC50 in the test with TNF-α [1] turned out to be 1.64 µM.
Compound `CCOC(=O)c1c(-c2ccc(F)cc2)c(-c2ccncc2)c(CCCO)n1C` [Cpd 17, 3-(4-Fluorophenyl)-5-(3-hydroxypropyl)-1-methyl-4-(4-pyridinyl)-1H-pyrrole-2-carboxylic acid ethyl ester] had an IC50 in the test on TNF-α [1] of 0.186 µM.
Consider `COC(=O)c1c(-c2ccc(F)cc2)c(-c2ccncc2)c(NCCN2CCCC2)n1C` [Cpd 118], for which, in the test with TNF-α [1], 1.39 µM corresponded to half-maximal inhibition (IC50).
In turn, `COC(=O)c1c(-c2ccc(F)cc2)c(-c2ccncc2)c(N2CCC(NC(=O)OC(C)(C)C)C2)n1C` (stereo not drawn) [Cpd 110] gave a concentration for half-maximal inhibition (IC50) in the test on TNF-α [1] of 1.66 µM.
Consider `O=C1OCCn2cc(-c3ccncc3)c(-c3ccc(F)cc3)c21` [Cpd 46, 8-(4-Fluorophenyl)-3,4-dihydro-7-(4-pyridinyl)-1H-pyrrolo[2,1-c][1,4]oxazin-1-one], for which, in the test on TNF-α [1], the IC50 was 0.16 µM.
For the compound `COC(=O)c1c(-c2ccc(F)cc2)c(-c2ccncc2)c(NCCN2CCNCC2)n1C` [Cpd 140], in the test with TNF-α [2] (setting [4]), the inhibition in vivo at 10 mg/kg came to 77%.
With `COC(=O)c1c(-c2ccc(F)cc2)c(-c2ccncc2)cn1CCO` [Cpd 165], in the test on TNF-α [1], the concentration for half-maximal inhibition (IC50) was found to be 0.692 µM.
On the same count and under the same terms, for `COC(=O)c1c(-c2ccncc2)c(-c2ccc(F)cc2)c(N(C)CCN2CCOCC2)n1C` [Cpd 164] the value was 3.51 µM.
For `CCCCNCc1c(-c2ccncc2)c(-c2ccc(F)cc2)cn1C` [Cpd 123], the IC50 in the test with TNF-α [1] was 1.08 µM.
